Data on 12 compounds can be found in paper PMC7905067, “Design and Immunological Evaluation of a Hybrid Peptide as a Potent TLR2 Agonist by Structure-Based Virtual Screening” (Frontiers in Cell and Developmental Biology, 2021).

Where two headings read alike, the source gives them in different places.

Series [1] deals with CTX-immunosuppressed murine model. The experiment in a line: Body weight and immune organ indices in CTX-immunosuppressed mice. It is filed as in vivo, BALB/c mice. As to conditions: CTX 80 mg/kg i.p. 3 days, peptide 10 mg/kg i.p. days 4-10, n = 12; for bodyweight: CTX group vs control. As for the experimental part: BALB/c mice (female, 6–8 weeks; Charles River, Beijing, China) used in this study were maintained in a specific-pathogen-free facility (55 ± 10% humidity and 22 ± 1°C) during the experiments. These experiments were conducted with approval from the Institutional Animal Care and Use Committee of China Agricultural University (certificate of the Beijing Laboratory Animal employee, ID: 18086).
(§1) After a 7-day adaptation period, the mice were randomly divided into five groups (n = 12 in each group): (1) control group: physiological saline was injected intraperitoneally once daily; (2) cyclophosphamide (CTX) group: CTX (80 mg/kg mouse weight; Sigma-Aldrich, St. Louis, MO, United States) was injected intraperitoneally once daily for the first 3 days. […] From days 4 to 10, peptide (10 mg/kg mouse weight) was injected intraperitoneally into mice once daily. Twenty-four hours after the last drug administration, all the mice were weighed and then euthanized, and their tissues and blood were collected for further study. The body weight index was calculated according to the formula:
Index(%)=finalbodyweight-initalbodyweight/initialbodyweight×100
The thymus and spleen indices were measured by the following formula:
Index(mg/g)=weightofthymusorspleen/bodyweight

The test system of series [2] is T lymphocyte subpopulations (CD4 +, CD8 +), mouse peripheral blood. In words: Peripheral blood T lymphocyte subpopulations by flow cytometry. In kind it is in vivo, BALB/c mice. As to conditions: CTX 80 mg/kg i.p. 3 days; peptide 10 mg/kg i.p. days 4-10; three biological replicates. The protocol:
as §1, with “formula: […]” for “formula:”
Erythrocytes were aseptically obtained from the different groups of mouse peripheral blood and lysed with RBC lysis buffer. The remaining cells were washed with PBS and resuspended in PBS. The cells were combined with peridinin-chlorophyll-protein complex (PerCP)-conjugated anti-mouse CD3 +, allophycocyanin (APC)-conjugated anti-mouse CD4 +, and fluorescein isothiocyanate (FITC)-conjugated anti-mouse CD8 + (BD Pharmingen, United States) for 30 min at 4°C. The T lymphocyte subpopulations were analyzed by flow cytometry.
In general terms: In flow cytometry, cells or beads pass a laser one at a time.

The test system of series [3] is MHC class II, mouse PBMCs. In words: DC maturation: MHC-II expression by flow cytometry. It is filed as in vivo, BALB/c mice. As to conditions: CTX 80 mg/kg i.p. 3 days; peptide 10 mg/kg i.p. days 4-10; three biological replicates. The protocol:
as §1, with “formula: […]” for “formula:”
Mouse peripheral blood mononuclear cells (PBMCs) were obtained from the different groups of mice through Ficoll density gradient centrifugation. The cells were resuspended in PBS with 5% FBS and incubated with 10% (v/v) normal goat serum for 15 min at 4°C. The cells were combined with FITC-conjugated antibodies specific for MHC class II (MHC-II; BD Pharmingen, United States). The surface expression of MHC-II was determined by flow cytometry.

The subject of series [4] is serum TNF-α, IL-6, and IL-1β. In words: Serum cytokines by ELISA in CTX-treated mice. In kind it is in vivo, BALB/c mice. As to conditions: CTX 80 mg/kg i.p. 3 days, peptide 10 mg/kg i.p. days 4-10, three biological replicates. The protocol: as §1, with “formula: […]” for “formula:”
(§2) Serum was collected from blood and then assayed by ELISA kits according to the protocol supplied by the manufacturer (eBioscience, San Diego, United States) to determine the secretion of IgG, IgA, IgM, TNF-α, IL-6, and IL-1β.
Background: An ELISA detects its analyte on a solid surface through an enzyme-linked reagent.

The subject of another series is serum IgA, IgG, and IgM. The experiment in a line: Serum immunoglobulins by ELISA in CTX-treated mice. In kind it is in vivo, BALB/c mice. As to conditions: CTX 80 mg/kg i.p. 3 days, peptide 10 mg/kg i.p. days 4-10, three biological replicates. As for the experimental part:
as §1, with “formula: […]” for “formula:”
as §2

The subject of series [5] is TLR2-NF-κB signaling pathway. In words: Western blot of TLR2-NF-κB signaling pathway. It is filed as in vivo, BALB/c mice. As to conditions: proteins from serum, three independent experiments. The protocol:
as §1, with “formula: […]” for “formula:”
Whole proteins were extracted from the serum using a whole-protein extraction kit (Nanjing KeyGEN Biotech, Nanjing, China). The protein concentrations were determined with the BCA Assay (KeyGEN Biotech, Nanjing, China) according to the manufacturer’s instructions. Equivalent amounts of protein were separated by SDS-PAGE and blotted onto polyvinylidene fluoride membranes (Bio-Rad). […]
In general terms: Immunoblotting shows a protein as a band on a membrane.

The test system of series [6] is immunoregulatory mediators, proinflammatory cytokines, and chemokines. Also noted: method as in 4 sources, ref Scott et al., 2002; Tjabringa et al., 2003; Bowdish et al., 2004 ||| ref Mookherjee et al., 2006; Molhoek et al., 2009 ||| ref Li et al., 2006; Tan et al., 2017 ||| ref Wei et al., 2018. As to conditions: cited from earlier work.
For another series, the system named is RAW264.7 cells. The experiment in a line: In vitro immunomodulatory activity: cytokine secretion by RAW264.7 cells (ELISA). It is filed as cell-based, murine. As to conditions: 10 μg/mL, 12 h, 37°C, ELISA; three independent experiments. As for the experimental part: RAW264.7 cells were seeded at a density of 1.0 × 10^6 cell/mL and treated with (10 μg/mL) or without peptides in each well of a 6-well plate for 12 h at 37°C in a humidified incubator with 5% CO2. After treatment, TNF-α, IL-6 and IL-1β secretion in the cell supernatants was assessed using ELISA kits according to the manufacturer’s instructions.

The conditions of series [7]: cited from earlier work. An excerpt:
TP5 plays a vitally important role in the process of immune enhancement.

In another series the test system is TLR2. As to conditions: cited from earlier work. From the text:
Therefore, LL-37 could prevent or attenuate immunosuppression.

For series [8] the following is noted: ref Anders et al., 2018; cited from earlier work.
In another series the test system is thymic atrophy. The arrangement: method as in Goldstein et al., 1979; Singh et al., 1998. As to conditions: ref Goldstein et al., 1979; Singh et al., 1998; cited from earlier work.
The test system of another series is TLR2, RAW264.7 cells. In words: TLR2 blocking experiment (anti-mouse TLR2 C9A12, then LTPa). In kind it is cell-based. As to conditions: LTPa 10 μg/mL, 24 h; with or without TLR2 mAb (C9A12) 1 h before; ELISA. The protocol: For TLR2 blocking experiments, RAW264.7 cells were cultured in 24-well plates overnight at 37°C. The mouse IgG2a isotype control antibody or anti-mouse TLR2 (C9A12; InvivoGen, San Diego, CA, United States) was added to the cell cultures 1 h before being treated with LTPa for 24 h at 37°C. Then, the levels of TNF-α, IL-6, and IL-1β in the culture supernatant were analyzed.

On to `O=P1(N(CCCl)CCCl)NCCCO1` (centres unmarked) [CTX, cyclophosphamide, reference compound], for which, in series [1], the spleen index entry is “significantly decreased”, the thymus index result was “significantly decreased” and the bodyweight entry was “significant decrease in the bodyweight”. In addition, the “proportions of CD4 + and CD8 + T lymphocytes” value in series [2] is “remarkably reduced the proportions of CD4 + and CD8 + T lymphocytes”. The “expression of MHC-II” value in series [3] is “significantly decreased”. Besides, in series [4], the “serum IL-1β level” value is on record as “significantly decreased”, the “serum IL-6 level” value is given as “significantly decreased” and the “serum TNF-α level” value is “significantly decreased”. For the same compound, in the series on serum IgA, IgG, and IgM, the “serum IgA level” value is on record as “significantly reduced”, the “serum IgG level” value was “significantly reduced” and the “serum IgM level” value was “significantly reduced”. Besides, in series [5], the “expression levels of TLR2, MyD88, and TRAF6” value was “significantly decreased the expression levels of TLR2, MyD88, and TRAF6”; the “phosphorylation of IKK-β, IκB-α, and NF-κB” value was “significantly decreased”.
Take “FKRIVQRI KDFLR [LL-37 (17–29), characteristic fragment of LL-37]”: in [6] (ref Li et al., 2006, Tan et al., 2017), the immunoregulatory activity result was “robust immunoregulatory activity”.
Turning to “FKRIVQRIKDFLRRKDVT [LTPb, hybrid peptide combining LL-37b and TP5]”, in the series on RAW264.7 cells, the IL-1β secretion result is “remarkable increases”, the IL-6 secretion result is “remarkable increases” and the TNF-α secretion entry is recorded as “remarkable increases”.
For “IGKEFKRIV QRIKDFLRNL [LL-37 (13–31), characteristic fragment of LL-37]”, the immunoregulatory activity result in series [6] (ref Wei et al., 2018) is listed as “robust immunoregulatory activity”.
As for “IGKEFKRIVQRIKDFLRNLRKDVT [LTPc, hybrid peptide combining LL-37c and TP5]”, in the series with RAW264.7 cells, the IL-1β secretion result is “remarkable increases”, the IL-6 secretion entry was “remarkable increases” and the TNF-α secretion entry is “remarkable increases”.
“IGKEFKRIVQRIKDFLRNLVPRTE [LL-37 (13–36), characteristic fragment of LL-37]”: in series [6] (ref Mookherjee et al., 2006, Molhoek et al., 2009), the immunoregulatory activity entry is given as “robust immunoregulatory activity”.
As for “LLGDFFRKSKEKIGKEFKRIVQRIKDFLRNLVPRTES [LL-37]”, in [1], the bodyweight entry was “improved bodyweight rapidly”. Also, in series [7] (ref not separately given (sentence cites Anders et al., 2018)), the half-life result is given as “long half-life”. The “innate immune response by binding to TLR2” value in the series on TLR2 (ref Mansour et al., 2014, Zhang et al., 2016, Agier et al., 2018) is given as “robust innate immune response by binding to TLR2”. In series [6] (ref Scott et al., 2002, Tjabringa et al., 2003, Bowdish et al., 2004), the “production of immunoregulatory mediators, proinflammatory cytokines, and chemokines” value is “stimulates the production of various immunoregulatory mediators, proinflammatory cytokines, and chemokines”. For the same compound, the cytotoxicity entry in [8] is “hampered by its cytotoxicity”.
With “RKDVT FKRIVQRIKDFLR [TPLb, hybrid peptide combining TP5 and LL-37b]”, in the series with RAW264.7 cells, the IL-1β secretion result was “no significant increases”, the IL-6 secretion result is on record as “no significant increases” and the TNF-α secretion entry is recorded as “no significant increases”.
Turning to “RKDVT [TP5, Thymopentin, Arg32–Tyr36 fragment derived from thymopoietin; parental peptide]”, the bodyweight result in series [1] was “improved bodyweight rapidly”. For the same compound, in series [7], the half-life entry is reported as “short half-life”. Further, in the series with TLR2 (ref Li et al., 2013), the TLR2 binding result is reported as “exert its immunoregulatory activity by binding TLR2”. Further, in the series on thymic atrophy, the “restoration of thymic atrophy” value is “able to restore the thymic atrophy induced by immunosuppressants”.
“RKDVTIGKEFKRIVQRIKDFLRNL [TPLc, hybrid peptide combining TP5 and LL-37c]”: in the series on RAW264.7 cells, the IL-1β secretion entry is “no significant increases”, the IL-6 secretion entry is on record as “no significant increases” and the TNF-α secretion result was “no significant increases”.
As to “RKDVTIGKEFKRIVQRIKDFLRNLVPRTE [TPLa, hybrid peptide combining TP5 and LL-37a]”, in the series on RAW264.7 cells, the IL-1β secretion result is given as “no significant increases”, the IL-6 secretion result is “no significant increases” and the TNF-α secretion entry is “no significant increases”.
Turning to “TLR2 mAb: anti-mouse TLR2 (C9A12; InvivoGen) [reference compound]”, the “TNF-α, IL-6, and IL-1β production” value in the series on TLR2, RAW264.7 cells was “significantly inhibited the TNF-α, IL-6, and IL-1β production induced by LTPa”.
